# Source: PMC2965769 (PLoS Pathogens, 2010)
# *: point of attachment. X2 = CC(C)CCC[C@@H](C)[C@H]1CC[C@H]2[C@@H]3CC=C4C[C@@H](OC(=O)CCOCCOCCOCCOCCNC(=O)C*)CC[C@]4(C)[C@H]3CC[C@]12C; X1 = CC(C)CCC[C@@H](C)[C@H]1CC[C@H]2[C@@H]3CC=C4C[C@@H](OC(=O)C*)CC[C@]4(C)[C@H]3CC[C@]12C
# Test system: NiV G/F pseudotyped viruses
# Conditions: 24 h
substance,measurement,value
Ac-VALDPIDISIVLNKAKSDLEESKEWIRRSNQKLDSIGSGSGC(X2)-NH2 (N-terminus and C-terminus assumed) [V-PEG4-chol],IC50,~0.02 nM
Ac-VALDPIDISIVLNKAKSDLEESKEWIRRSNQKLDSIGSGSGC(X1)-NH2 (N-terminus and C-terminus assumed) [V-chol],IC50,~0.02 nM
